In ChEMBL document CHEMBL1150044, “Brominated polyacetylenes from the Philippines sponge Diplastrella sp” (J Nat Prod, 2003):
Counter-ions that a name gives are not always drawn.

Target: Human immunodeficiency virus type 1 integrase (Human immunodeficiency virus 1, UniProt Q7ZJM1)
Assay: Inhibition of HIV1 recombinant integrase

Chain of Human immunodeficiency virus type 1 integrase (Q7ZJM1 whole entry): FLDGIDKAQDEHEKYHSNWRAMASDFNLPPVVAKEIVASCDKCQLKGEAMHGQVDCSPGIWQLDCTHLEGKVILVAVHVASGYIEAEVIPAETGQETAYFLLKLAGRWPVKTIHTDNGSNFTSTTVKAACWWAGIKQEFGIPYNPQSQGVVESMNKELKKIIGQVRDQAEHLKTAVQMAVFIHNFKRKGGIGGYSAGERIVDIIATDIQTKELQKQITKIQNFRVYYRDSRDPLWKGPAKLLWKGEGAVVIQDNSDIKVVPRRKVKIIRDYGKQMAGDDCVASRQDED

Structure (SMILES)	IC50
O=S(=O)(O)OCCC#CC#CCCCCC#CC#C/C=C/Br	78.3 µM
O=S(=O)(O)OCC(O)C#CC#CCCCCCCC#C/C=C/Br (stereo not drawn)	74.4 µM
OCC(O)C#CC#CCCCCCCC#C/C=C/Br (stereo not drawn) [DIPLYNE A]	> 155 µM
OCC(O)C#CC#CCCCCCCC#C/C=C\Br (stereo not drawn) [DIPLYNE B]	> 155 µM
O=S(=O)(O)OCC(O)C#CC#CCCCCCCCC/C=C/Br (stereo not drawn) [DIPLYNE C SULFATE]	73.7 µM
OCC(O)C#CC#CCCCCCCCC/C=C/Br (stereo not drawn) [DIPLYNE C]	> 153 µM
OCC(O)C#CC#CCCCCC#CC#C/C=C/Br (stereo not drawn) [DIPLYNE D]	> 157 µM
OCC(O)C#CC#CCCCC/C=C/C#C/C=C/Br (stereo not drawn) [DIPLYNE E]	> 156 µM
